Results on one molecule are retold here after US7914817B2, “Treatment of inflammatory bowel disease” (Ed. Geistlich Soehne AG fuer Chemische Industrie, priority 2000, dated 2011).

Structures are written as SMILES.

In data set [1] the test system is gram positive and gram negative bacteria and fungi. The following applies: cited from earlier work.
The conditions of data set [2]: humans and animals, intravenous and intraperitoneal administration; cited from earlier work.
The conditions of data set [3]: metabolized to taurine, carbon dioxide and water; cited from earlier work.
In data set [4] the test system is inflammatory response in intestinal mucosa in patients with active inflammatory bowel disease. Kind of data set: Oral taurolidine in patients with active IBD: inflammatory response in intestinal mucosa (Example 2). In kind it is in vivo. The source says: This example evaluates the beneficial effect of oral administration of taurolidine on amelioration of inflammatory response in intestinal mucosa in patients with active inflammatory bowel disease. This Example measures proinflammatory cytokines, angiogenic cytokines, reactive oxygen species and nitric oxide in the mucosal biopsy cultures in patients with IBD pre- and post-taurolidine administration. Local mucosal recruited PMN and mononuclear leukocyte-associated proinflammatory cytokine and angiogenic cytokine expression in patients with IBD are assessed pre- and post-taurolidine treatment.
• 1) The specimens of standard intestinal mucosal biopsy are collected from patients with IBD on the day before taurolidine administration, and day 5 and day 10 after taurolidine administration, and incubated with completed culture medium for different time points. The supernatants from the biopsy cultures are harvested by centrifugation and stored at −80° C. for measurement of proinflammatory cytokines (TNF-α, IL-1β, IL-6), angiogenic cytokines (VEGF, TGF-β1), lipid peroxides (malonaldehyde), nitric oxide and peroxynitrite. • 2) The mononuclear leukocytes from the above specimens of mucosal biopsy are isolated using the technique of collagenase-digestion and density gradient sedimentation. […]

The test system of data set [5] is systemic inflammatory response in patients with active inflammatory bowel disease. The experiment in a line: Oral taurolidine in patients with active IBD: systemic inflammatory response (Example 1). The following applies: pre- vs post-administration (day 2, 5, 10). Type of data set: in vivo. As for the experimental part: This experiment evaluates the beneficial effects of oral administration of taurolidine on attenuation of systemic inflammatory response in patients with active inflammatory bowel disease. This Example measures systemic proinflammatory and angiogenic cytokines, systemic reactive oxygen species and nitric oxide in patients with IBD pre- and post-taurolidine administration. Secondly, circulating PMN and monocytes from patients with IBD are assessed for their adhesion receptor expression, and their ability to release proinflammatory and angiogenic cytokines, as well as reactive oxygen species and nitric oxide following taurolidine treatment.
• 1) Peripheral venous blood samples are collected from patients on the day before taurolidine administration, and day 2, day 5 and day 10 after taurolidine administration. Serum samples are harvested by centrifugation and stored at −80° C. for measurement of serum levels of endotoxin, LPS binding protein (LBP), and soluble CD14, serum proinflammatory cytokines (TNF-α, IL-1β, IL-6), serum angiogenic cytokines (VEGF, TGF-β1), serum lipid peroxides (malonaldehyde), nitric oxide and peroxynitrite. • 2) Receptor expression of CD11a, CD11b, CD18, and CD14 on PMN and monocytes in the whole blood samples are assessed on the day before taurolidine administration, and day 2, day 5, and day 10 after taurolidine administration. […]

With `O=S1(=O)CCN(CN2CCS(=O)(=O)NC2)CN1` [Taurolidine, bis(1,1-dioxoperhydro-1,2,4-thiadiazin-4-yl)methane], in data set [1], the antimicrobial activity result is reported as “broad spectrum of antimicrobial activity”. The “toxicity / side effects” value in data set [2] is “non-toxic to humans and animals and is free from side effects”. The half life entry in data set [3] is “short half life”. Further, the “pathological changes in intestinal mucosa” value in data set [4] (day before vs day 5 and day 10) is “improves pathological changes in intestinal mucosa”. The “proinflammatory cytokines, angiogenic cytokines, reactive oxygen species, recruitment of PMN and mononuclear leukocytes in the intestinal mucosa” value in data set [4] (mucosal biopsy) is “downregulation”. For the same molecule, in data set [5], the “systemic proinflammatory and angiogenic cytokine levels, PMN and monocyte adhesion receptor expression, lipid peroxides, nitric oxide, peroxynitrite” value is on record as “ameliorates these phenomena”.
